In ChEMBL document CHEMBL3885881, “DrugMatrix”:

Organism: Rattus norvegicus
Assay: DrugMatrix - Regimen: Daily Repeat
Assay type: toxicity, organism-based, Sprague-Dawley
Set-up: regimen Daily Repeat, gender Male, age 6-8 weeks
Details: in vivo, po, route oral GAVAGE, vehicle 100 % WATER; for ABSOLUTE BASOPHIL / ABSOLUTE EOSINOPHIL / ABSOLUTE LYMPHOCYTE / ABSOLUTE MONOCYTE / ABSOLUTE SEGMENTED NEUTROPHIL / BASOPHIL / EOSINOPHIL / ERYTHROCYTE COUNT / HEMATOCRIT / HEMOGLOBIN / LEUKOCYTE COUNT / LYMPHOCYTE / MEAN CORPUSCULAR HEMOGLOBIN / MEAN CORPUSCULAR HEMOGLOBIN CONCENTRATION / MEAN CORPUSCULAR VOLUME / MONOCYTE / NEUTROPHIL / NUCLEATED RED BLOOD CELLS / PLATELET COUNT: tissue Blood; for ALANINE AMINOTRANSFERASE / ALBUMIN / ALKALINE PHOSPHATASE / ASPARTATE AMINOTRANSFERASE / BLOOD UREA NITROGEN / CARBON DIOXIDE / CHLORIDE / CHOLESTEROL / CREATINE PHOSPHOKINASE / CREATININE / GLUCOSE / LACTATE DEHYDROGENASE / LIPASE / PHOSPHORUS / POTASSIUM / SODIUM / TOTAL BILIRUBIN / TOTAL PROTEIN / URIC ACID: tissue Plasma
[1] = 0 mg/kg, 72 h, dose level Control, time 3 day
[2] = 0 mg/kg, 120 h, dose level Control, time 5 day
[3] = 58 mg/kg, 72 h, dose level Low, time 3 day

## Cc1cn([C@H]2C=C[C@@H](CO)O2)c(=O)[nH]c1=O [STAVUDINE]
[1]
  ABSOLUTE BASOPHIL: 0 CELLS/uL
  ABSOLUTE EOSINOPHIL: 0 CELLS/uL
  ABSOLUTE LYMPHOCYTE: 8482.5 CELLS/uL
  ABSOLUTE MONOCYTE: 63.83 CELLS/uL
  ABSOLUTE SEGMENTED NEUTROPHIL: 887 CELLS/uL
  BASOPHIL: 0%
  EOSINOPHIL: 0%
  ERYTHROCYTE COUNT: 5.49 x10E6/uL
  HEMATOCRIT: 34.5%
  HEMOGLOBIN: 13.33 G/DL
  LEUKOCYTE COUNT: 9.43 x10E3/uL
  LYMPHOCYTE: 90.17%
  MEAN CORPUSCULAR HEMOGLOBIN: 24.3 pg
  MEAN CORPUSCULAR HEMOGLOBIN CONCENTRATION: 38.63 G/DL
  MEAN CORPUSCULAR VOLUME: 62.88 fL
  MONOCYTE: 0.67%
  NEUTROPHIL: 9.17%
  NUCLEATED RED BLOOD CELLS: 0.67 /100WBC
  PLATELET COUNT: 1022.83 x10E3/uL
  ALANINE AMINOTRANSFERASE: 50.5 u/L
  ALBUMIN: 4.08 G/DL
  ALKALINE PHOSPHATASE: 368.33 u/L
  ASPARTATE AMINOTRANSFERASE: 87.5 u/L
  BLOOD UREA NITROGEN: 12.83 mg/dL
  CARBON DIOXIDE: 32.83 mmol/L
  CHLORIDE: 99.67 MEQ/L
  CHOLESTEROL: 79.67 mg/dL
  CREATINE PHOSPHOKINASE: 585 u/L
  CREATININE: 0.22 mg/dL
  GLUCOSE: 135.67 mg/dL
  LACTATE DEHYDROGENASE: 171 u/L
  LIPASE: 9.5 u/L
  PHOSPHORUS: 11.18 mg/dL
  POTASSIUM: 6.25 MEQ/L
  SODIUM: 144.87 MEQ/L
  TOTAL BILIRUBIN: 0.2 mg/dL
  TOTAL PROTEIN: 6.08 G/DL
  URIC ACID: 0.65 mg/dL
[2]
  ABSOLUTE BASOPHIL: 0 CELLS/uL
  ABSOLUTE EOSINOPHIL: 14.5 CELLS/uL
  ABSOLUTE LYMPHOCYTE: 7596.17 CELLS/uL
  ABSOLUTE MONOCYTE: 69.67 CELLS/uL
  ABSOLUTE SEGMENTED NEUTROPHIL: 503 CELLS/uL
  BASOPHIL: 0%
  EOSINOPHIL: 0.17%
  ERYTHROCYTE COUNT: 5.49 x10E6/uL
  HEMATOCRIT: 34.72%
  HEMOGLOBIN: 13.47 G/DL
  LEUKOCYTE COUNT: 8.18 x10E3/uL
  LYMPHOCYTE: 92.17%
  MEAN CORPUSCULAR HEMOGLOBIN: 24.57 pg
  MEAN CORPUSCULAR HEMOGLOBIN CONCENTRATION: 38.82 G/DL
  MEAN CORPUSCULAR VOLUME: 63.3 fL
  MONOCYTE: 1%
  NEUTROPHIL: 6.67%
  NUCLEATED RED BLOOD CELLS: 0 /100WBC
  PLATELET COUNT: 1141 x10E3/uL
  ALANINE AMINOTRANSFERASE: 48.33 u/L
  ALBUMIN: 4.07 G/DL
  ALKALINE PHOSPHATASE: 395.67 u/L
  ASPARTATE AMINOTRANSFERASE: 85.67 u/L
  BLOOD UREA NITROGEN: 15.83 mg/dL
  CARBON DIOXIDE: 31.33 mmol/L
  CHLORIDE: 100.83 MEQ/L
  CHOLESTEROL: 62.33 mg/dL
  CREATINE PHOSPHOKINASE: 248.33 u/L
  CREATININE: 0.2 mg/dL
  GLUCOSE: 135.67 mg/dL
  LACTATE DEHYDROGENASE: 141.33 u/L
  LIPASE: 9.5 u/L
  PHOSPHORUS: 10.73 mg/dL
  POTASSIUM: 6.07 MEQ/L
  SODIUM: 145.35 MEQ/L
  TOTAL BILIRUBIN: 0.22 mg/dL
  TOTAL PROTEIN: 6.12 G/DL
  URIC ACID: 0.63 mg/dL
[3]
  ABSOLUTE BASOPHIL: 0 CELLS/uL
  ABSOLUTE EOSINOPHIL: 22.67 CELLS/uL
  ABSOLUTE LYMPHOCYTE: 7881 CELLS/uL
  ABSOLUTE MONOCYTE: 172.33 CELLS/uL
  ABSOLUTE SEGMENTED NEUTROPHIL: 1024 CELLS/uL
  BASOPHIL: 0%
  EOSINOPHIL: 0.33%
  ERYTHROCYTE COUNT: 5.09 x10E6/uL
  HEMATOCRIT: 32.43%
  HEMOGLOBIN: 12.77 G/DL
  LEUKOCYTE COUNT: 9.1 x10E3/uL
  LYMPHOCYTE: 86.67%
  MEAN CORPUSCULAR HEMOGLOBIN: 25.1 pg
  MEAN CORPUSCULAR HEMOGLOBIN CONCENTRATION: 39.37 G/DL
  MEAN CORPUSCULAR VOLUME: 63.77 fL
  MONOCYTE: 2%
  NEUTROPHIL: 11%
  NUCLEATED RED BLOOD CELLS: 1 /100WBC
  PLATELET COUNT: 1073 x10E3/uL
  ALANINE AMINOTRANSFERASE: 58.67 u/L
  ALBUMIN: 4.17 G/DL
  ALKALINE PHOSPHATASE: 410.33 u/L
  ASPARTATE AMINOTRANSFERASE: 82.67 u/L
  BLOOD UREA NITROGEN: 12 mg/dL
  CARBON DIOXIDE: 33 mmol/L
  CHLORIDE: 99 MEQ/L
  CHOLESTEROL: 75 mg/dL
  CREATINE PHOSPHOKINASE: 267 u/L
  CREATININE: 0.33 mg/dL
  GLUCOSE: 133.33 mg/dL
  LACTATE DEHYDROGENASE: 130.33 u/L
  LIPASE: 10 u/L
  PHOSPHORUS: 11.33 mg/dL
  POTASSIUM: 6.27 MEQ/L
  SODIUM: 145.07 MEQ/L
  TOTAL BILIRUBIN: 0.23 mg/dL
  TOTAL PROTEIN: 6 G/DL
  URIC ACID: 0.77 mg/dL
